Assays:
[1] = tested on: anti-pS2 antibody E1Z3G; experiment: Indirect ELISA, relative binding at single antibody dilution; parameters: species or system rabbit; conditions: immobilized peptide
Description: (§1) To allow rapid screening, the His6-tagged CTD peptides were immobilized onto Ni^2+-coated 96-well microtiter plates. The immobilized peptides were incubated with increasing concentrations of the anti-pS2 antibody E1Z3G. […] Next, positional scanning was performed with anti-pS2 antibodies EPR18855 (Abcam) and 2G1 (Thermo Fisher/Invitrogen). Here, and in subsequent experiments, we refrained from obtaining titration curves and instead determined the fold change of antibody binding relative to that of a reference binder (Figure 4B).
(§2) Figure 4 (A) Titration of the E1Z3G primary antibody to immobilized hexaheptade peptides. […] (C) Probing chelate and cluster effects upon binding of EPR18855, 2G1, and E1Z3G mAbs to hexaheptad peptides containing two or six pSer2 residues. […] 100 μL of TMB–H2O2 solution (1:1), 20 min, 25 °C, ii. 100 μL of 2 M H2SO4, 1 min, 25 °C. Washes and dilution of the antibodies were performed with NaH2PO4, 200 mM BSA (1% w/v), and 0.05% Tween-20 at pH 7.4. Assays were performed in triplicate with randomized positions of probes or antibodies.
(§3) A stock solution in immobilization buffer (NaH2PO4 200 mM, pH 7.4 ) was prepared for every test peptide. The […]
(§4) withdrawn and diluted step w ise with immobilization buffer from high µM range to 300 nM. Stock solution s an d sample s w ere stored at - 8 0°C.
(§5) - Thawing o f all the sampl es at room temperature for 30 min utes. The samples were quickly centrifuged and carefully mi xed before being used.
(§6) - Plating of the samples (100 µl) into a black non-binding 96-well plate that was previously conditioned overnight with wash buffer (NaH2PO4 200 mM, BS A 1% w/ v, Tween -20 0. 05%, pH 7. 4) and washed 3 times with the immobilization buffer.
(§7) - Sample s wer e transferred wit h a multi-channel pip ette to the clear Ni2+-coated 96 -well p late. Thi s plate-to-plate transfer provided full control of the timing of the Ni2+ -His6 interaction.
(§8) - Incubation for one hour at 25°C.
(§9) - Preparation of the primary antibody dilutions from the stock and then subsequent serial dilutions using […]
(§10) - Wash ing the plate 5 tim es for one minute with wa sh buffer (200 µl) .
(§11) - Plating of the primary antibody (100 µl) and incubation of the primary antibody for 1 hour at 37°C.
(§12) - Preparation of the dilution and plating (100 µl) of the secon dary antibody.
(§13) - Incubation for 30 minutes at 37°C.
(§14) - Wash ing the plate 5 times for one minute with wa sh buffer (200 µl) .
(§15) - Plating of the freshly prepared TMB-H 2O2 solution (1:1, 10 0 µl) .
(§16) - TMB solution incubation for 20 minutes at 25 °C.
(§17) - Plating of the Stop solution (2 M H2SO4, 1 00 µL).
(§18) - Incubation at 25°C for 1 minute.
(§19) - Plate reading at 450 nm, nor mal aperture, 1 second as m e asurem ent time . […]
(§20) for the primary and secondary antibodies. The average value of the optical density of the blanks was subtracted from the OD of the analyte s in the s ame plate befor e data analysi s. All the e xperi ments have be en perfor med a s biologi cal triplicate unless otherwise stated. […]
(§21) in each triplicate to provide randomization on the plate. […]
(§22) - Relative affinity mea suremen ts: 3 serial dilutions o f the pri mary mAbs wer e used in the experi ment fro m […]
(§23) nM). The relati ve binding valu es wer e g enerated by dividing the OD value for each probe by the OD value of the referenc e peptide tested in the sa me plat e, with th e sa me conditions. […]

[2] = tested on: anti-pS2 antibody EPR18855; experiment: as above; parameters: species or system rabbit; conditions: immobilized peptide
Description: as §1, §2, §3, §4, §5, §6, §7, §8, §9, §10, §11, §12, §13, §14, §15, §16, §17, §18, §19, §20, §21, §22, §23

[3] = tested on: anti-pS2 antibody 2G1; experiment: as above; parameters: species or system rabbit; conditions: immobilized peptide
Description: as §1, §2, §3, §4, §5, §6, §7, §8, §9, §10, §11, §12, §13, §14, §15, §16, §17, §18, §19, §20, §21, §22, §23

[4] = tested on: anti-pS2 antibody E1Z3G; experiment: Competitive ELISA with immobilized phosphopeptide 35; type: binding, rabbit; conditions: for LogIC50, best-fit value (Table S4, E1Z3G): log10 of competitor concentration, One site-Fit logIC50; for competition against immobilized peptide 35 for antibody binding (in words): peptide in solution, increasing concentrations
Description: (§24) The 100% binding value refers to binding of antibody to immobilized 35 in the absence of competitor.
as §3, §4, §5, §6, §7, §8, §9, §10, §11, §12, §13, §14, §15, §16, §17, §18, §19, §20, §21
(§25) After the incubation time and the wash, the seri es of dilutions ( 300, 100, 50, 25, 1 2.5, 6.2 5, 2. 1 and 0.7 nM) of the co mpetit ors wa s plated, all […]
(§26) the samples in half the volu me (50 µL) and double the concentration. Incubation for 5 minutes at 25°C.
(§27) Plating of the primary antibody in half the volume (50 µL) and double the concentration. The final volume in each well was 100 µL, and the final concentration of the primary antibody was 1:1000. On the same plate, a highly concentrated sample of each competitor (1.2 µM) was also plated to evaluate p ossible unspecific

[5] = tested on: anti-pS2 antibody EPR18855; experiment: as above; type: binding, rabbit; conditions: for LogIC50, best-fit value (Table S4, EPR18855): log10 of competitor concentration, One site-Fit logIC50; for competition against immobilized peptide 35 for antibody binding (in words): peptide in solution, increasing concentrations
Description: as §24, §3, §4, §5, §6, §7, §8, §9, §10, §11, §12, §13, §14, §15, §16, §17, §18, §19, §20, §21, §25, §26, §27

[6] = tested on: anti-pS2 antibody 2G1; experiment: as above; type: binding, rabbit; conditions: for LogIC50, best-fit value (Table S4, 2G1): log10 of competitor concentration, One site-Fit logIC50; for competition against immobilized peptide 35 for antibody binding (in words): peptide in solution, increasing concentrations
Description: as §24, §3, §4, §5, §6, §7, §8, §9, §10, §11, §12, §13, §14, §15, §16, §17, §18, §19, §20, §21, §25, §26, §27

## HHHHHH-NH-(CH2)2-(OCH2CH2)6-CO-YpSPTSPS-YpSPTSPS-YpSPTSPS-YpSPTSPS-YpSPTSPS-YpSPTSPS-NH2 [compound 7, His6-PEG6 hexaheptad CTD peptide, hexa-pSer2]
[1]
  binding enhancement of E1Z3G relative to 35: 5 fold
[2]
  recognition by EPR18855 (in words): did not enhance binding
[3]
  recognition by 2G1 (in words): did not enhance binding

## Ac- YSPTSPS YSPTSPS YSPTSPS YSPTSPS YSPTSPS YSPTSPS -NH2 [compound 4, Ac-hexaheptad CTD peptide amide phosphorylated at each Ser5]
[4]
  LogIC50, best-fit value (Table S4, E1Z3G): ~ -3.629
  competition against immobilized peptide 35 for antibody binding (in words): not able to compete
[5]
  LogIC50, best-fit value (Table S4, EPR18855): 1.287
  competition against immobilized peptide 35 for antibody binding (in words): not able to compete
[6]
  LogIC50, best-fit value (Table S4, 2G1): 7.562
  competition against immobilized peptide 35 for antibody binding (in words): not able to compete

## H6-NH-(CH2)2-PEG6-CO-YSPTSPS-YpSPTSPS-(YSPTSPS)4-YAPTSPS-(YSPTSPS)2-YpSPTSPS-(YSPTSPS)2 [compound 28, dodecaheptad CTD peptide, pSer2 in heptads 2 and 10]
[2]
  recognition by EPR18855 (in words): remained at the level of the monovalent phosphopeptide
[3]
  recognition by 2G1 (in words): remained at the level of the monovalent phosphopeptide

## H6-NH-(CH2)2-PEG6-CO-YSPTSPS-YpSPTSPS-(YSPTSPS)4-YAPTSPS-(YSPTSPS)-YpSPTSPS-(YSPTSPS)3 [compound 27, dodecaheptad CTD peptide, pSer2 in heptads 2 and 9]
[2]
  recognition by EPR18855 (in words): remained at the level of the monovalent phosphopeptide
[3]
  recognition by 2G1 (in words): remained at the level of the monovalent phosphopeptide

## Ac- YSPTSPS YSPTSPS YSPTSPS YSPTSPS YSPTSPS YSPTSPS -NH2 [compound 3, Ac-hexaheptad CTD peptide amide phosphorylated at each Thr4]
[4]
  LogIC50, best-fit value (Table S4, E1Z3G): -5.866
  competition against immobilized peptide 35 for antibody binding (in words): not able to compete
[5]
  LogIC50, best-fit value (Table S4, EPR18855): 8.303
  competition against immobilized peptide 35 for antibody binding (in words): not able to compete
[6]
  LogIC50, best-fit value (Table S4, 2G1): ~ 8.143
  competition against immobilized peptide 35 for antibody binding (in words): not able to compete

— article PMC11066871 (Journal of the American Chemical Society, 2024)
